Tests used:
Assay in all cases: Bliss excess, mean over the matrix (fraction); higher = more synergy
TK10 (Kidney Carcinoma) = test system: TK10 (Kidney Carcinoma)
Procedure, shortened: (§1)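 Cell lines in DMEM/F12 or RPMI with 10% FBS were plated in 1536-well plates, held 24 hours at 37°C, 5% CO2, then given two-drug dose matrices for 72 hours (DMSO typically 0.2%). Viability was read by CellTiter-Glo 2.0 luminescence and scaled as inhibition from 0 (vehicle wells) to 1 (blank wells). Combination Emax is the second-highest inhibition in the matrix; Bliss excess is observed combination effect minus expected EA + EB − EA·EB, EA and EB being single-agent effects.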

[1] = test system: MIA-PaCa-2 (Pancreatic Carcinoma)
Procedure, shortened: as §1

[2] = test system: EoL-1-cell (Acute Myeloid Leukemia)
Procedure, shortened: as §1

UACC-62 (Melanoma) = test system: UACC-62 (Melanoma)
Procedure, shortened: as §1

[3] = test system: PANC-04-03 (Pancreatic Carcinoma)
Procedure, shortened: as §1

[4] = test system: LU-65 (Non-Small Cell Lung Carcinoma)
Procedure, shortened: as §1

[5] = test system: KARPAS-299 (T-Cell Non-Hodgkin's Lymphoma)
Procedure, shortened: as §1

[6] = test system: MLMA (Other Blood Carcinomas)
Procedure, shortened: as §1

ACHN (Kidney Carcinoma) = test system: ACHN (Kidney Carcinoma)
Procedure, shortened: as §1

[7] = test system: BT-549 (Breast Carcinoma)
Procedure, shortened: as §1

[8] = test system: KYSE-450 (Esophageal Squamous Cell Carcinoma)
Procedure, shortened: as §1

| SMILES | Bliss excess (TK10 (Kidney Carcinoma)) | Bliss excess [1] | Bliss excess [2] | Bliss excess (UACC-62 (Melanoma)) | Bliss excess [3] | Bliss excess [4] | Bliss excess [5] | Bliss excess [6] | Bliss excess (ACHN (Kidney Carcinoma)) | Bliss excess [7] | Bliss excess [8] |
| --- | --- | --- | --- | --- | --- | --- | --- | --- | --- | --- | --- |
| O=C(c1cc(Cc2n[nH]c(=O)c3ccccc23)ccc1F)N1CCN(C(=O)C2CC2)CC1 [Olaparib] + Cc1c2c(nn1C)CSCc1cc(n(C)n1)CSc1cc(c3ccccc3c1)OCCCc1c(C(=O)O)n(C)c3c-2c(Cl)ccc13 [AZD5991] (first compound max 10 µM, 7x7, partner max 1 µM) | -0.0699 | -0.0205 | 0.0236 | -0.0089 | -0.0554 | -0.0452 | 0.0202 | -0.0744 | -0.0218 | -0.0223 | -0.0409 |
| O=C(c1cc(Cc2n[nH]c(=O)c3ccccc23)ccc1F)N1CCN(C(=O)C2CC2)CC1 [Olaparib] + CN(CC[C@H](CSC1=CC=CC=C1)NC2=C(C=C(C=C2)S(=O)(=O)NC(=O)C3=CC=C(C=C3)N4CCC(CC4)[C@H](C5=CC=CC=C5C6=CC=C(C=C6)Cl)O)S(=O)(=O)C(F)(F)F)CCO [AZD4320] (first compound max 10 µM, 7x7, partner max 1 µM) | -0.0439 | 0.002 | 0.0717 | -0.0105 | -0.0555 | -0.0739 | 0.109 | -0.0619 | -0.0164 | -0.0365 | -0.0434 |
| Cc1c2c(nn1C)CSCc1cc(n(C)n1)CSc1cc(c3ccccc3c1)OCCCc1c(C(=O)O)n(C)c3c-2c(Cl)ccc13 [AZD5991] + CS(=O)(=O)CCNCc1ccc(-c2ccc3ncnc(Nc4ccc(OCc5cccc(F)c5)c(Cl)c4)c3c2)o1 [Lapatinib] (first compound max 1 µM, 7x7, partner max 10 µM) | -0.0567 | -0.0094 |  | -0.0376 | -0.0275 | 0.0232 | 0.0227 | -0.0474 | 0.0028 | -0.042 | -0.0108 |
| CC1(C)CCC(CN2CCN(c3ccc(C(=O)NS(=O)(=O)c4ccc(NCC5CCOCC5)c([N+](=O)[O-])c4)c(Oc4cnc5[nH]ccc5c4)c3)CC2)=C(c2ccc(Cl)cc2)C1 [Venetoclax] + CS(=O)(=O)CCNCc1ccc(-c2ccc3ncnc(Nc4ccc(OCc5cccc(F)c5)c(Cl)c4)c3c2)o1 [Lapatinib] (first compound max 1 µM, 7x7, partner max 10 µM) | -0.0141 | 0.0099 | 0.0351 | -0.0044 | -0.0396 | 0.0159 | 0.0202 | -0.0329 | -0.0198 | -0.0573 | -0.0413 |
| C[C@@H](Nc1cc(F)cc(F)c1)c1cc(C(=O)N(C)C)cc2c(=O)cc(N3CCOCC3)oc12 [AZD8186] + CC(=O)c1c(C)c2cnc(Nc3ccc(N4CCNCC4)cn3)nc2n(C2CCCC2)c1=O [Palbociclib] (first compound max 10 µM, 7x7, partner max 10 µM) | -0.0069 | 0.0485 | 0.0996 | 0.0303 | 0.0107 | -0.0378 | 0.0912 | 0.0443 | 0.0335 | 0.0464 | -0.0404 |
| C[C@@H]1COCCN1c1cc(C2([S@](C)(=N)=O)CC2)nc(-c2ccnc3[nH]ccc23)n1 [AZD6738] + Nc1ccn([C@@H]2O[C@H](CO)[C@@H](O)C2(F)F)c(=O)n1 [Gemcitabine] (first compound max 10 µM, 7x7, partner max 0.3 µM) | -0.0417 | 0.0999 | -0.081 | 0.0114 | -0.0244 | 0.0191 | 0.0607 | -0.0777 | 0.0003 | -0.0194 | 0.104 |
| C[C@@H](Nc1cc(F)cc(F)c1)c1cc(C(=O)N(C)C)cc2c(=O)cc(N3CCOCC3)oc12 [AZD8186] + C1CN(CCC1(C(=O)N[C@@H](CCO)C2=CC=C(C=C2)Cl)N)C3=NC=NC4=C3C=CN4 [AZD5363] (first compound max 10 µM, 7x7, partner max 10 µM) | -0.0661 | 0.0056 | 0 | -0.0382 | -0.0712 | -0.0629 | 0.0092 | -0.0797 | 0.04 | -0.0011 | 0.0035 |
| O=C(c1cc(Cc2n[nH]c(=O)c3ccccc23)ccc1F)N1CCN(C(=O)C2CC2)CC1 [Olaparib] + COc1nnc2ccc(N3CCC(c4ccc(OCCN5CCN(C)C(=O)[C@H]5C)cc4)CC3)nn12 [AZD5153] (first compound max 10 µM, 7x7, partner max 1 µM) | -0.0301 | -0.0233 | -0.0384 | 0.0387 | -0.0698 | -0.0601 | -0.0654 | -0.0697 | -0.0367 | -0.0697 | -0.0606 |
| Cc1c2c(nn1C)CSCc1cc(n(C)n1)CSc1cc(c3ccccc3c1)OCCCc1c(C(=O)O)n(C)c3c-2c(Cl)ccc13 [AZD5991] + Nc1ccn([C@@H]2O[C@H](CO)[C@@H](O)C2(F)F)c(=O)n1 [Gemcitabine] (first compound max 1 µM, 7x7, partner max 0.3 µM) | -0.0198 | 0.0137 | -0.0123 | -0.0219 | -0.0643 | -0.0251 | -0.0188 | -0.0451 | -0.0455 | 0.0278 | -0.0267 |
| CS(=O)(=O)CCNCc1ccc(-c2ccc3ncnc(Nc4ccc(OCc5cccc(F)c5)c(Cl)c4)c3c2)o1 [Lapatinib] + Cn1cnc2c(F)c(Nc3ccc(Br)cc3Cl)c(C(=O)NOCCO)cc21 [Selumetinib] (first compound max 10 µM, 7x7, partner max 10 µM) | -0.008 | 0.0484 | -0.038 | -0.0119 | 0.0145 | -0.0113 | 0.0736 | 0.0059 | 0.0251 | -0.0473 | -0.016 |
| C=CCn1c(=O)c2cnc(Nc3ccc(N4CCN(C)CC4)cc3)nc2n1-c1cccc(C(C)(C)O)n1 [AZD1775] + Nc1ccn([C@@H]2O[C@H](CO)[C@@H](O)C2(F)F)c(=O)n1 [Gemcitabine] (first compound max 1 µM, partner max 0.3 µM) | -0.0299 | 0.0459 | 0.0391 | 0.0399 | -0.0346 | -0.0081 | 0.0851 | -0.0797 | -0.0338 | -0.0069 | 0.0717 |
| O=C(c1cc(Cc2n[nH]c(=O)c3ccccc23)ccc1F)N1CCN(C(=O)C2CC2)CC1 [Olaparib] + CC1(C)CCC(CN2CCN(c3ccc(C(=O)NS(=O)(=O)c4ccc(NCC5CCOCC5)c([N+](=O)[O-])c4)c(Oc4cnc5[nH]ccc5c4)c3)CC2)=C(c2ccc(Cl)cc2)C1 [Venetoclax] (first compound max 10 µM, 7x7, partner max 1 µM) | -0.0727 | -0.0208 | 0.0698 | -0.007 | -0.0318 | -0.0323 | 0.0277 | -0.0299 | -0.0214 | -0.0516 | -0.0499 |
| Cc1nc(-c2cn3c(n2)-c2ccc(-c4cnn(C(C)(C)C(N)=O)c4)cc2OCC3)n(C(C)C)n1 [Taselisib] + O=C(Nc1ccc2[nH]nc(-c3ccncc3)c2c1)[C@@H]1CCN(CC(=O)N2CCN(c3ccc(-c4ncccn4)cc3)CC2)C1 [SCH772984] (first compound max 10 µM, 7x7, partner max 5 µM) | -0.008 | 0.149 | 0.191 | -0.035 | 0.0934 | 0.214 | 0.147 | 0.0548 | 0.0219 | 0.047 | 0.0365 |
| C[C@@H]1COCCN1c1cc(C2([S@](C)(=N)=O)CC2)nc(-c2ccnc3[nH]ccc23)n1 [AZD6738] + C1CC(C1)(C(=O)[O-])C(=O)[O-].N.N.[Pt+2] [Carboplatin] (first compound max 10 µM, 7x7, partner max 10 µM) | -0.0837 | -0.0272 | -0.0132 | -0.0289 | -0.0682 | -0.0954 | -0.0261 | -0.102 | -0.034 | -0.0453 | -0.0386 |
| C[C@@H](Oc1cc(-c2cnn(C3CCNCC3)c2)cnc1N)c1c(Cl)ccc(F)c1Cl [Crizotinib] + CC1=C(C(=CC=C1)Cl)NC(=O)C2=CN=C(S2)NC3=CC(=NC(=N3)C)N4CCN(CC4)CCO [Dasatinib] (first compound max 10 µM, 7x7, partner max 2 µM) | 0.0333 | 0.0119 | 0.0101 | -0.0656 | -0.0683 | -0.0973 | -0.0263 | -0.0411 | 0.0041 | 0.0139 | 0.0276 |
| CN(CCO)CC[C@H](CSc1ccccc1)Nc1ccc(S(=O)(=O)NC(=O)c2ccc(N3CCC([C@@H](O)c4ccccc4-c4ccc(Cl)cc4)CC3)cc2)cc1S(=O)(=O)C(F)(F)F [AZD4320] + CS(=O)(=O)CCNCc1ccc(-c2ccc3ncnc(Nc4ccc(OCc5cccc(F)c5)c(Cl)c4)c3c2)o1 [Lapatinib] (first compound max 1 µM, 7x7, partner max 10 µM) | -0.0942 | 0.0373 | 0.05 | -0.0143 | -0.0143 | -0.0043 | 0.0265 | 0.014 | -0.011 | -0.0188 | -0.0459 |
| Cc1c2c(nn1C)CSCc1cc(n(C)n1)CSc1cc(c3ccccc3c1)OCCCc1c(C(=O)O)n(C)c3c-2c(Cl)ccc13 [AZD5991] + CC(=O)O[C@H]1C(=O)[C@@]2(C)[C@H]([C@H](OC(=O)c3ccccc3)[C@]3(O)C[C@H](OC(=O)[C@H](O)[C@@H](NC(=O)c4ccccc4)c4ccccc4)C(C)=C1C3(C)C)[C@]1(OC(C)=O)CO[C@@H]1C[C@@H]2O [Paclitaxel] (first compound max 1 µM, 7x7, partner max 3 µM) | -0.0402 |  | -0.0041 | 0.115 | 0.0111 | -0.0944 | -0.0693 | -0.0803 | -0.0038 | 0.0124 | 0.0363 |
| C=CCn1c(=O)c2cnc(Nc3ccc(N4CCN(C)CC4)cc3)nc2n1-c1cccc(C(C)(C)O)n1 [AZD1775] + CCc1c2c(nc3ccc(O)cc13)-c1cc3c(c(=O)n1C2)COC(=O)[C@]3(O)CC [SN-38] (first compound max 1 µM, partner max 0.3 µM) | -0.0717 | 0.0699 | 0.0324 | -0.0497 | -0.0594 | -0.0127 | -0.042 | -0.0639 | -0.0634 | -0.057 | 0.0358 |
| C[C@@H](Oc1cc(-c2cnn(C3CCNCC3)c2)cnc1N)c1c(Cl)ccc(F)c1Cl [Crizotinib] + Cn1cnc2c(F)c(Nc3ccc(Br)cc3Cl)c(C(=O)NOCCO)cc21 [Selumetinib] (first compound max 10 µM, 7x7, partner max 10 µM) | -0.0705 | 0.0058 | 0.0352 | -0.0229 | -0.0194 | 0.0003 | -0.032 | -0.116 | 0.0277 | -0.063 | -0.0241 |
